Laboratory results taken from patent US20220354754A1, “FOAM COMPOSITIONS” (The Procter & Gamble Company, priority 2021, published 2022).

Assay: Water solubility of blowing agents at 20° C.
Settings: in water

SMILES | Water solubility at 20° C. (weight percent)
CCCC [Butane] | <0.01% weight percent
O=C=O [Carbon dioxide] | 0.8% weight percent
[He] [Helium] | <0.01 weight percent

The next lines start with the values.

Water solubility at 20° C. (weight percent) | SMILES
7% weight percent | COC [Dimethyl ether]
<0.01% weight percent | CC(C)C [Isobutane]
0.12 weight percent | [N-]=[N+]=O [Nitrous oxide]
